pIC50: −log10 of the molar value. Active and inactive are the calls of the source. No cut-off for these calls is given here.
Assays:
Mus musculus [1] = assay: Neuroprotective activity in HdhQ140 mouse assessed as decrease in staining intensity of microglia at 5 mg/kg, iv by Iba1staining based analysis; type: functional, organism-based
Mus musculus [2] = organism: Mus musculus; assay: Neuroprotective activity in primary striatal neurons from HdhQ140 mouse assessed as rescue of mHTT-induced neuronal survival loss; type: functional, organism-based; settings: Neuron
Mus musculus [3] = assay: Neuroprotective activity in HdhQ140 mouse assessed as decrease in staining intensity of microglia at 0.5 mM, icv by Iba1staining based analysis; type: functional, organism-based
[4] = Drug uptake in mouse brain at 5 mg/kg, iv; type: ADME, organism-based; settings: in vivo, read-out: Drug uptake
Mus musculus [5] = assay: Neuroprotective activity in primary striatal neurons from HdhQ140 mouse assessed as rescue of mHTT-induced neuronal survival loss at 5 mg/kg, iv; type: functional, organism-based
[6] = Neuroprotective activity in HdhQ140 mouse model assessed as alleviation of motor deficiency at 5 mg/kg, iv; type: organism-based; settings: in vivo
[7] = biological target: G-protein coupled receptor 52 (Mus musculus, UniProt P0C5J4); assay: In-vivo antagonist activity at GPR52 in HdhQ140 mouse model with GPR52 knockdown assessed as decrease in mHTT levels; type: functional
Sequence of G-protein coupled receptor 52 (P0C5J4 whole entry): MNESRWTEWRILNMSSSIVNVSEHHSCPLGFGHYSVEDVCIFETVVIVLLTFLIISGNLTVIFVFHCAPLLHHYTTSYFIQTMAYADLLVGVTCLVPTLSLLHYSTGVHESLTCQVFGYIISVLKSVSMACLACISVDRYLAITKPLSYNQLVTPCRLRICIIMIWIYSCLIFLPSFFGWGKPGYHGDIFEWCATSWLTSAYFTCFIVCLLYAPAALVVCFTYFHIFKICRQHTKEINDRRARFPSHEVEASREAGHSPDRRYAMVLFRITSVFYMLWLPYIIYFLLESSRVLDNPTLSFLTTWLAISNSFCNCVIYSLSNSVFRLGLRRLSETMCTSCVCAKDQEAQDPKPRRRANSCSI

O=C(/C=C/CCc1ccccc1)c1cccs1
Activity (Mus musculus [1]): Active
Activity (Mus musculus [2]): Active
Activity (Mus musculus [3]): Active
concentration [4]: 20 nM
Activity (Mus musculus [5]): Active
Activity [6]: Toxic

O=C(/C=C/CCc1ccccc1)CCc1ccccc1
pIC50 [7]: 5.22

Reference: ChEMBL document CHEMBL4732142, “Discovery of the First Druggable GPR52 Antagonist to Treat Huntington's Disease” (J Med Chem, 2021)
